Measured values from US9271994B2, “Compositions and methods related to calcitriol” (VDF Futureceuticals, Inc., priority 2009, dated 2016).

What was measured:
Type in all cases: in vivo
[1] = system: calcidiol; assay: Serum calcidiol after single oral dose in human volunteers; conditions: single oral dosage of 552 mg, five subjects, 30-120 minutes after administration
Experimental: (§1) In a typical example, five subjects were administered a single dosage of 552 mg calcium fructoborate upon informed consent, and blood was drawn immediately prior to administration and after 30, 60, 90, and 120 minutes. Calcitriol was measured using a standard radioimmuno assay from a commercial lab starting from 4 ml whole blood (numerous alternative methods are also deemed suitable, including those described in U.S. Pat. Nos. 4,585,741, 5,202,266, and 6,455,714). From each sample and for each time point, concentrations of calcidiol and calcitriol in serum were measured and the data are shown in FIGS. 1A to 1D. FIG. 1A depicts the effect of oral administration of calcium fructoborate on blood calcitriol 30 minutes after oral administration, FIG. 1B depicts the effect of oral administration of calcium fructoborate on blood calcitriol 60 minutes after oral administration, and FIG. 1C depicts the effect of oral administration of calcium fructoborate on blood calcitriol 90 minutes after oral administration. FIG. 1D depicts the effect of oral administration of calcium fructoborate on blood calcitriol 90-120 minutes after oral administration.

[2] = Intact Ca-Fructoborate in serum of orally treated fasted mice by LC-MS; conditions: oral gavage 600 mcg/mouse; for Intact Ca-fructoborate in serum: fasted mice
Experimental: Using LC-MS, Ca-Fructoborate was detected and measured from serum samples at concentrations as low as 0.2 ppm and higher. This method was used to analyze the presence and amount of Ca-Fructoborate in serum collected from mice treated orally (gavage) with Ca-Fructoborate in liquid at dose 600 mcg/mouse for 30 and 60 minutes.
Detection of intact Ca-Fructoborate in sera collected from fasted mice treated orally with the compound for 30 or 60 minutes. Collected sera were diluted in running buffer and filtered through 0.45 PVDF filter. This solution was analyzed by LCMS for Ca-Fructoborate as the fructoborate anion.

[3] = system: serum calcium, serum phosphate, parathyroid hormone, calcitonin; assay: Serum calcium, phosphate, parathyroid hormone and calcitonin upon administration; conditions: about 550 mg; data not shown
[4] = system: blood calcitriol; assay: Blood/serum calcitriol after single oral dose in human volunteers (radioimmuno assay)
Experimental: as §1
FIGS. 2A and 2B depict a graphic illustration of the results from this study where the biphasic mode of modulation of calcitriol is clearly seen between times 0-90 minutes (decrease) and 90-120 minutes (increase). In most cases, it is expected that the so increased calcitriol level will drop back to starting levels within 6 hours or less, and more typically within 4 hours, or less (data not shown). FIG. 3 depicts another graphic representation in which the exclusive modulation of calcitriol versus calcidiol is shown.
While not wishing to be bound by any theory or hypothesis, the inventors contemplate that the compounds according to the inventive subject matter increase serum concentration of calcitriol in a bi-modal manner. During the first 60 minutes, a moderate increase is observed in the case of subjects with low initial level of calcitriol (<30 pg/ml), but not in subjects with initial level >30 pg/ml. […]

- Intact Ca-fructoborate in serum ([2]; 30 minutes): 449 µg/mL
- Intact Ca-fructoborate in serum ([2]; 60 minutes): 556 µg/mL
- bioavailability of the compound ([2]; mice (20 g by average)): 556 mcg/ml of serum
Substance: calcium fructoborate
- calcidiol concentration [1]: remained unaffected
- delivery from intestine to bloodstream ([2]; mice, 30 and 60 minutes): in intact form and in time-dependent manner
- change of serum calcium concentration [3]: 5-15%
- change of serum concentration of calcitonin [3]: 10-30%
- change of serum concentration of parathyroid hormone [3]: 10-30%
- change of serum phosphate concentration [3]: 5-15%
- modulation of calcitriol between times 0-90 minutes ([4]; single oral 552 mg, 0-90 minutes): decrease
- modulation of calcitriol between times 90-120 minutes ([4]; single oral 552 mg, 90-120 minutes): increase
- calcitriol serum concentration ([4]; single oral dosage of 552 mg, five subjects, 30-120 minutes after administration): significantly and acutely affected
